Measured values: patent publication EP0226513A1, “Peptides capable of inhibiting interactions between antigens and lymphocytes T4, products derived therefrom and their applications” (INSTITUT PASTEUR, priority 1985, dated 1987)
Where no end group is shown, it is not given here.

Columns and labels:
[1] = system: lymphocytes T; assay: T-lymphocyte proliferation test induced by influenza virus A/Bangkok, fresh cells (tritiated thymidine incorporation); type: cell-based, humain; conditions: result in words
[2] = system: lymphocytes T, lymphocytes B, monocytes; type: cell-based, humain; conditions: result in words; b210: peptides of different length compared, 0,1-10 µg/ml
[3] = system: lymphocytes T, monocytes; assay: Proliferation after separate preincubation of purified T lymphocytes and monocytes with peptides or antibodies (synergy of inhibition); type: cell-based, humain; conditions: T lymphocytes preincubated with the labelled substance, monocytes preincubated with "T₄-12"; sub-inhibitory concentrations
Description: Les monocytes sont obtenus après adhérence des cellules mononucléées (10⁷ /ml) sur boîte de Pétri (Corning) pendant une heure à 37°C. Ces boîtes de Pétri ont été préalablement incubées à 4°C avec du SVF décomplémenté, durant la nuit. Après avoir récupéré les cellules non adhérentes, les cellules adhérentes sont dé-tachées avec un barreau caoutchouté (rubber policeman) et par un pipettage vigoureux. Après deux lavages, elles sont irradiées à 4000 rads (IBL 137, source CS-137, CEA).
Les monocytes restants sont séparés des cellules non adhérentes par un traitement à la L-méthylleucine ester (5.10⁶ /ml, 5 mM final, Sigma) 40 minutes à tempé-rature ambiante (18). La réaction est arrêtée par addition de sérum AB humain (10 % final et lavages à froid).
Les lymphocytes T et B sont séparés par la technique des rosettes E. Les cellules T étant capables de former des rosettes en présence de globules rouges de mouton sensibilisés à la neuraminidase, après une incubation d'une heure à 0°C. Les cellules formant rosettes (E⁺) seront séparées des cellules ne formant pas rosettes (E⁻ ou B) par sédimentation sur gradient Ficoll-Hypaque. Les globules rouges de mouton sont lysés par choc hypotonique.
d'incubation des populations lymphoïdes purifiées avec les peptides ou des anticorps monoclonaux spécifiques des molé-cules T₄ et HLA-DR ont été effectuées. […]

[4] = system: interactions entre les macrophages et les lymphocytes auxiliaires (lymphocytes T4) et entre les lymphocytes T4 et les lymphocytes B; assay: In vitro cell interaction tests in the system of FISHER et al (influenza virus); type: cell-based; conditions: individually or in synergy tests

For LRFDSDL [DR-7, H₂N-LRFDSDL-OH], the “inhibition de la prolifération spécifique du virus influenza des lymphocytes T” value [1] was “intermédiaires”, the “inhibition de la production d'anticorps anti-influenza” value [2] was “puis and intermédiaires” and the “synergie d'inhibition de la prolifération” value [3] was “intermédiaire”.
LRFDSD [XIV, H₂N―――LRFDSD―――OH] was tested, and the “capacité d'inhiber in vitro les interactions entre les macrophages et les lymphocytes T4 et entre les lymphocytes T4 et les lymphocytes B” value [4] was “capables”.
CC(C)[C@H](N)C(=O)N[C@@H](CCCNC(=N)N)C(=O)N[C@@H](Cc1ccccc1)C(=O)N[C@@H](CC(=O)O)C(=O)N[C@@H](CO)C(=O)N[C@@H](CC(=O)O)C(=O)O [XIII, H₂N-VRFDSD-OH] was tested, and the “capacité d'inhiber in vitro les interactions entre les macrophages et les lymphocytes T4 et entre les lymphocytes T4 et les lymphocytes B” value [4] was “capables”.
